The record followed here is PMC7601404, “Enzymes Involved in the Biosynthesis of Arginine from Ornithine in Maritime Pine (Pinus pinaster Ait.)” (Plants, 2020).

Read-outs that look alike come from different tables or passages of the source.

Experiment [1] deals with T1, PpASSY.
T1 construct: gene ASSY; mature form without predicted chloroplast transit peptide (TargetP-2.0, WoLF PSORT); N-terminal 6xHis (pDEST17), tag kept; E. coli; cloned cDNA 1218 nt
The experiment can be described thus: PPi release, molybdate/ascorbate assay, […] nm. The format is biochemical, Pinus pinaster. Conditions: 50 mM Tris-HCl pH 8, 25 °C, 3 mM ATP, 10 mM MgCl2.

Experiment [2] has as its target recombinant Pinus pinaster ornithine transcarbamylase (PpOTC) (Pinus pinaster). The experiment can be described thus: SEC; desalted purified recombinant enzymes loaded separately on an ENrich SEC 650 column calibrated with protein standards (29-669 kDa); holoenzyme mass from the partition coefficient (Kav); elution followed at 280 nm and confirmed by western blot. On the technique in general: In gel filtration, larger molecules generally elute earlier.

Experiment [3] deals with T2, PpASL.
T2 construct: gene ASL; mature form without predicted chloroplast transit peptide (TargetP-2.0, WoLF PSORT); N-terminal 6xHis (pDEST17), tag kept; E. coli; cloned cDNA 1398 nt
Briefly: fumarate absorbance at […] nm. It counts as biochemical, Pinus pinaster. The following applies: 50 mM Tris-HCl pH 8, 25 °C.

Experiment [4] deals with T3, PpOTC.
T3 construct: gene OTC; mature form without predicted chloroplast transit peptide (TargetP-2.0, WoLF PSORT); N-terminal 6xHis (pDEST17), tag kept; E. coli; cloned cDNA 984 nt
Briefly: phosphomolybdate Pi release assay, […] nm; allosteric sigmoidal fit. The following applies: 50 mM Tris-HCl pH 8.0, 25 °C, read-out: S0.5. The format is biochemical, Pinus pinaster.

The subject of experiment [5] is T3, PpOTC. Briefly: phosphomolybdate Pi release assay, […] nm. It counts as biochemical, Pinus pinaster. Conditions: 50 mM Tris-HCl pH 8.0, 25 °C, ornithine + carbamoyl-P above Km.
For experiment [6], the system named is T1, PpASSY. The experiment can be described thus: PPi release, molybdate/ascorbate assay, […] nm. The format is biochemical, Pinus pinaster. Conditions: 50 mM Tris-HCl pH 8, 25 °C, citrulline, aspartate, 3 mM ATP, 10 mM MgCl2, substrates above Km; partial inhibition.
For experiment [7], the target named is recombinant Pinus pinaster argininosuccinate lyase (PpASL) (Pinus pinaster). The experiment can be described thus: SEC; desalted purified recombinant enzymes loaded separately on an ENrich SEC 650 column calibrated with protein standards (29-669 kDa); holoenzyme mass from the partition coefficient (Kav); elution followed at 280 nm and confirmed by western blot.

Experiment [8] concerns the target recombinant Pinus pinaster argininosuccinate synthetase (PpASSY) (Pinus pinaster). The experiment is described as above.
Experiment [9] concerns T2, PpASL. Briefly: fumarate absorbance at […] nm. The format is biochemical, Pinus pinaster. The following applies: 50 mM Tris-HCl pH 8, 25 °C, argininosuccinate above Km.

On to `N[C@@H](CC(=O)O)C(=O)O` [aspartate], for which, in experiment [1] (2 mM citrulline), the Km is 120 ± 50 µM.
For orientation: stoichiometry N means a count of units in the complex or per binding partner. Take “recombinant Pinus pinaster ornithine transcarbamylase (PpOTC) (enzyme)”: the stoichiometry N in experiment [2] was determined as 3.
Consider `N=C(NCCC[C@H](N)C(=O)O)N[C@@H](CC(=O)O)C(=O)O` [argininosuccinate], for which the Km in [3] turned out to be 220 ± 30 µM.
`NC(=O)OP(=O)(O)O` [carbamoyl-P]: in experiment [4] (ornithine co-substrate, negative cooperativity), the Km is 3480 ± 1400 µM.
The term IC50 denotes the concentration at which inhibition is half-maximal. With `CC(C)[C@H](N)C(=O)O` [valine], in experiment [5], the concentration for half-maximal inhibition (IC50) was 7.19 mM.
As to `N=C(N)NCCC[C@H](N)C(=O)O` [arginine], the IC50 in experiment [5] (negative allosteric) was 10.3 mM; in experiment [6], 1.94 mM.
As for “recombinant Pinus pinaster argininosuccinate lyase (PpASL) (enzyme)”, in experiment [7], the stoichiometry N stood at 4.
For “recombinant Pinus pinaster argininosuccinate synthetase (PpASSY) (enzyme)”, the stoichiometry N in [8] worked out at 4.
The compound `NCCCNCCCCNCCCN` [spermine] came in with an IC50 in experiment [9] of 19.2 mM.
Regarding `NC(=O)NCCC[C@H](N)C(=O)O` [citrulline], the Km in experiment [1] (2 mM aspartate) worked out at 120 ± 30 µM.
For the compound `NCCC[C@H](N)C(=O)O` [ornithine], the Km in experiment [4] (carbamoyl-P co-substrate (5 mM), positive cooperativity) turned out to be 1280 ± 160 µM.
In turn, `NCCCCNCCCN` [spermidine] had an IC50 in experiment [9] of 4.97 mM.
